Measured values: ChEMBL document CHEMBL1201862, “PubChem BioAssay data set” (2004)
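96-well plates; 48 h exposure; 5 concentrations. Endpoints by linear interpolation between flanking doses. Not reached: highest tested concentration assigned. GI50 marks 50% less growth.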 Active and inactive are the calls of the source. Cut-off read from the data, not from the text of the source: active = GI50 up to about 1.1 µM and inactive = higher.

What was measured:
Assay in all cases: DTP human tumour cell line panel, 48 h
DLD-1 = tested on: DLD-1
CAKI-1 = tested on: CAKI-1
TK-10 = tested on: TK-10
KM-20L2 = tested on: KM-20L2
SF-295 = tested on: SF-295
Malme-3M = tested on: Malme-3M
SK-MEL-2 = tested on: SK-MEL-2
MOLT-4 = tested on: MOLT-4
U-251 = tested on: U-251
OVCAR-5 = tested on: OVCAR-5
ACHN = tested on: ACHN
UO-31 = tested on: UO-31
HOP-92 = tested on: HOP-92
DMS-273 = tested on: DMS-273
EKVX = tested on: EKVX
SF-268 = tested on: SF-268
OVCAR-4 = tested on: OVCAR-4
LXFL 529 = tested on: LXFL 529
COLO 205 = tested on: COLO 205
HCC 2998 = tested on: HCC 2998
SNB-78 = tested on: SNB-78
KM12 = tested on: KM12
A498 = tested on: A498
RXF 393 = tested on: RXF 393
SNB-75 = tested on: SNB-75
SK-OV-3 = tested on: SK-OV-3
DMS-114 = tested on: DMS-114
M19-MEL = tested on: M19-MEL
NCI-H522 = tested on: NCI-H522
IGROV-1 = tested on: IGROV-1
NCI-H226 = tested on: NCI-H226
UACC-62 = tested on: UACC-62
HCT-116 = tested on: HCT-116
HOP-18 = tested on: HOP-18
SNB-19 = tested on: SNB-19
SK-MEL-28 = tested on: SK-MEL-28
SW-620 = tested on: SW-620
OVCAR-8 = tested on: OVCAR-8
HT-29 = tested on: HT-29
NCI-H460 = tested on: NCI-H460
HCT-15 = tested on: HCT-15
SF-539 = tested on: SF-539
M14 = tested on: M14
NCI-H23 = tested on: NCI-H23
HOP-62 = tested on: HOP-62
RPMI-8226 = tested on: RPMI-8226
A549 = tested on: A549
OVCAR-3 = tested on: OVCAR-3
K562 = tested on: K562
HL-60 = tested on: HL-60
SK-MEL-5 = tested on: SK-MEL-5
LOX IMVI = tested on: LOX IMVI
786-0 = tested on: 786-0
UACC-257 = tested on: UACC-257
SN12C = tested on: SN12C
CCRF-CEM = tested on: CCRF-CEM
SR = tested on: SR
DU-145 = tested on: DU-145

## CN(C)C(=O)OC(Cn1cncn1)c1ccc(Cl)cc1Cl (stereo unspecified)
DLD-1
  GI50: > 100 µM (inactive)
CAKI-1
  GI50: > 100 µM (inactive)
TK-10
  GI50: > 100 µM (inactive)
KM-20L2
  GI50: > 100 µM (inactive)
SF-295
  GI50: > 100 µM (inactive)
Malme-3M
  GI50: > 100 µM (inactive)
SK-MEL-2
  GI50: > 100 µM (inactive)
MOLT-4
  GI50: > 100 µM (inactive)
U-251
  GI50: > 100 µM (inactive)
OVCAR-5
  GI50: > 100 µM (inactive)
ACHN
  GI50: > 100 µM (inactive)
UO-31
  GI50: > 100 µM (inactive)
HOP-92
  GI50: > 100 µM (inactive)
DMS-273
  GI50: > 100 µM (inactive)
EKVX
  GI50: > 100 µM (inactive)
SF-268
  GI50: > 100 µM (inactive)
OVCAR-4
  GI50: > 100 µM (inactive)
LXFL 529
  GI50: > 100 µM (inactive)
COLO 205
  GI50: > 100 µM (inactive)
HCC 2998
  GI50: > 100 µM (inactive)
SNB-78
  GI50: > 100 µM (inactive)
KM12
  GI50: > 100 µM (inactive)
A498
  GI50: > 100 µM (inactive)
RXF 393
  GI50: > 100 µM (inactive)
SNB-75
  GI50: > 100 µM (inactive)
SK-OV-3
  GI50: > 100 µM (inactive)
DMS-114
  GI50: > 100 µM (inactive)
M19-MEL
  GI50: > 100 µM (inactive)
NCI-H522
  GI50: 53.5 µM (inactive)
IGROV-1
  GI50: > 100 µM (inactive)
NCI-H226
  GI50: > 100 µM (inactive)
UACC-62
  GI50: > 100 µM (inactive)
HCT-116
  GI50: > 100 µM (inactive)
HOP-18
  GI50: > 100 µM (inactive)
SNB-19
  GI50: > 100 µM (inactive)
SK-MEL-28
  GI50: > 100 µM (inactive)
SW-620
  GI50: > 100 µM (inactive)
OVCAR-8
  GI50: > 100 µM (inactive)
HT-29
  GI50: > 100 µM (inactive)
NCI-H460
  GI50: > 100 µM (inactive)
HCT-15
  GI50: > 100 µM
SF-539
  GI50: > 100 µM (inactive)
M14
  GI50: > 100 µM (inactive)
NCI-H23
  GI50: > 100 µM (inactive)
HOP-62
  GI50: > 100 µM (inactive)
RPMI-8226
  GI50: > 100 µM (inactive)
A549
  GI50: > 100 µM (inactive)
OVCAR-3
  GI50: > 100 µM (inactive)
K562
  GI50: > 100 µM (inactive)
HL-60
  GI50: > 100 µM (inactive)
SK-MEL-5
  GI50: > 100 µM (inactive)
LOX IMVI
  GI50: > 100 µM (inactive)
786-0
  GI50: > 100 µM (inactive)
UACC-257
  GI50: > 100 µM (inactive)
SN12C
  GI50: > 100 µM (inactive)

## CCOC(=O)[C@@]12C(C)=CC(=O)O[C@]1(C)C[C@H]2C#N
DLD-1
  GI50: > 100 µM (inactive)
TK-10
  GI50: > 100 µM (inactive)
KM-20L2
  GI50: > 100 µM (inactive)
SF-295
  GI50: > 100 µM (inactive)
Malme-3M
  GI50: > 100 µM (inactive)
SK-MEL-2
  GI50: > 100 µM (inactive)
MOLT-4
  GI50: > 100 µM (inactive)
U-251
  GI50: > 100 µM (inactive)
ACHN
  GI50: > 100 µM (inactive)
UO-31
  GI50: > 100 µM (inactive)
HOP-92
  GI50: > 100 µM (inactive)
DMS-273
  GI50: > 100 µM (inactive)
EKVX
  GI50: > 100 µM (inactive)
SF-268
  GI50: > 100 µM (inactive)
OVCAR-4
  GI50: > 100 µM (inactive)
LXFL 529
  GI50: > 100 µM (inactive)
COLO 205
  GI50: > 100 µM (inactive)
HCC 2998
  GI50: > 100 µM (inactive)
SNB-78
  GI50: > 100 µM (inactive)
KM12
  GI50: > 100 µM (inactive)
A498
  GI50: > 100 µM (inactive)
RXF 393
  GI50: > 100 µM (inactive)
SNB-75
  GI50: 20.8 µM (inactive)
SK-OV-3
  GI50: > 100 µM (inactive)
DMS-114
  GI50: > 100 µM (inactive)
M19-MEL
  GI50: > 100 µM (inactive)
IGROV-1
  GI50: > 100 µM (inactive)
NCI-H226
  GI50: 50.9 µM (inactive)
UACC-62
  GI50: > 100 µM (inactive)
HCT-116
  GI50: > 100 µM (inactive)
HOP-18
  GI50: 15.4 µM (inactive)
SNB-19
  GI50: > 100 µM (inactive)
SK-MEL-28
  GI50: > 100 µM (inactive)
SW-620
  GI50: > 100 µM (inactive)
OVCAR-8
  GI50: > 100 µM (inactive)
HT-29
  GI50: > 100 µM (inactive)
NCI-H460
  GI50: > 100 µM (inactive)
HCT-15
  GI50: > 100 µM
SF-539
  GI50: > 100 µM (inactive)
M14
  GI50: > 100 µM (inactive)
NCI-H23
  GI50: > 100 µM (inactive)
HOP-62
  GI50: > 100 µM (inactive)
RPMI-8226
  GI50: > 100 µM (inactive)
A549
  GI50: > 100 µM (inactive)
OVCAR-3
  GI50: > 100 µM (inactive)
K562
  GI50: > 100 µM (inactive)
HL-60
  GI50: > 100 µM (inactive)
SK-MEL-5
  GI50: > 100 µM (inactive)
LOX IMVI
  GI50: > 100 µM (inactive)
786-0
  GI50: > 100 µM (inactive)
UACC-257
  GI50: > 100 µM (inactive)
CCRF-CEM
  GI50: > 100 µM (inactive)
SN12C
  GI50: > 100 µM (inactive)

## O=CN/C=C/c1ccccc1O
DLD-1
  GI50: > 100 µM (inactive)
CAKI-1
  GI50: > 100 µM (inactive)
TK-10
  GI50: > 100 µM (inactive)
KM-20L2
  GI50: > 100 µM (inactive)
SF-295
  GI50: > 100 µM (inactive)
Malme-3M
  GI50: > 100 µM (inactive)
SK-MEL-2
  GI50: > 100 µM (inactive)
MOLT-4
  GI50: > 100 µM (inactive)
U-251
  GI50: > 100 µM (inactive)
OVCAR-5
  GI50: > 100 µM (inactive)
ACHN
  GI50: > 100 µM (inactive)
UO-31
  GI50: > 100 µM (inactive)
HOP-92
  GI50: > 100 µM (inactive)
DMS-273
  GI50: > 100 µM (inactive)
EKVX
  GI50: > 100 µM (inactive)
SF-268
  GI50: > 79.8 µM (inactive)
OVCAR-4
  GI50: > 100 µM (inactive)
LXFL 529
  GI50: > 100 µM (inactive)
COLO 205
  GI50: > 100 µM (inactive)
HCC 2998
  GI50: > 100 µM (inactive)
SNB-78
  GI50: > 100 µM (inactive)
KM12
  GI50: > 100 µM (inactive)
A498
  GI50: > 100 µM (inactive)
RXF 393
  GI50: > 100 µM (inactive)
SNB-75
  GI50: > 100 µM (inactive)
SK-OV-3
  GI50: > 100 µM (inactive)
DMS-114
  GI50: > 100 µM (inactive)
M19-MEL
  GI50: > 100 µM (inactive)
NCI-H522
  GI50: > 100 µM (inactive)
IGROV-1
  GI50: > 100 µM (inactive)
NCI-H226
  GI50: > 100 µM (inactive)
UACC-62
  GI50: > 100 µM (inactive)
HCT-116
  GI50: > 100 µM (inactive)
HOP-18
  GI50: > 100 µM (inactive)
SNB-19
  GI50: > 100 µM (inactive)
SR
  GI50: > 100 µM (inactive)
SK-MEL-28
  GI50: > 100 µM (inactive)
SW-620
  GI50: > 100 µM (inactive)
OVCAR-8
  GI50: > 100 µM (inactive)
HT-29
  GI50: > 100 µM (inactive)
NCI-H460
  GI50: > 100 µM (inactive)
HCT-15
  GI50: > 100 µM
SF-539
  GI50: > 100 µM (inactive)
M14
  GI50: > 100 µM (inactive)
NCI-H23
  GI50: > 100 µM (inactive)
HOP-62
  GI50: > 100 µM (inactive)
RPMI-8226
  GI50: > 100 µM (inactive)
A549
  GI50: > 100 µM (inactive)
OVCAR-3
  GI50: > 100 µM (inactive)
K562
  GI50: > 31.6 µM (inactive)
HL-60
  GI50: > 86.7 µM (inactive)
SK-MEL-5
  GI50: > 100 µM (inactive)
LOX IMVI
  GI50: > 100 µM (inactive)
786-0
  GI50: > 100 µM (inactive)
DU-145
  GI50: > 100 µM (inactive)
UACC-257
  GI50: > 100 µM (inactive)
CCRF-CEM
  GI50: > 100 µM (inactive)
SN12C
  GI50: > 100 µM (inactive)
